Columns and labels:
[1] = Bioactive material loading capacity of porous silica particles; format: physicochemical; settings: particles of Example 2-(3)-4)-(i), distilled water, 1 hour
Protocol: After loading the negatively charged porous silica particles of Example 2-(3)-4)-(i) with doxorubicin, the absorbance of the supernatant was measured to determine an amount of loaded doxorubicin, and a loading rate (“loading capacity”) of the particles was calculated.
Specifically, 5 mg of porous silica particle powders and 2 mg of doxorubicin were mixed in 1 ml of distilled water, and then settled at room temperature for 1 hour. Subsequently, the solution was centrifuged at 8000 rpm for 10 minutes to settle the particles, and absorbance (λab=480 nm) of the supernatant was measured to determine an amount of the low molecular weight compound remaining in the supernatant without loading. Further, an amount of the loaded low molecular weight compound was calculated (an amount of the loaded low molecular weight compound=an amount of initially added low molecular weight compound−an amount of the low molecular weight compound remaining in the supernatant) so as to determine the loading capacity (loading capacity=bioactive material/porous silica particles, w/w %)
After loading the negatively charged porous silica particles in Example 2-(3)-4)-(i) with irinotecan, absorbance of the supernatant was measured and an amount of loaded irinotecan was calculated, and the loading capacity thereof was determined. […]

[2] = Release of bioactive materials from loaded porous silica particles; format: physicochemical; settings: doxorubicin loaded on porous silica particles, SBF (pH 7.4), 37° C.
Protocol: 5 mg of porous silica particles loaded with doxorubicin ([…]) was dispersed in SBF (pH 7.4) (total volume: 1 ml), and then the solution was placed in a 1.5 ml tube and maintained in a dynamic condition of performing horizontal agitation at 20 rpm and 37° C. At each time point, the porous silica solution loaded with doxorubicin was settled using a centrifuge, and the absorbance (λa,b=480 nm) of the supernatant was measured to determine an amount of released doxorubicin.
10 mg of porous silica particles loaded with doxorubicin (2 mg) were dispersed in SBF (pH 7.4) inside a dialysis membrane (total volume: 0.5 ml), and then the dialysis membrane was placed in a 1.5 ml SBF tube (pH 7.4) and maintained in static conditions at 37° C. At each time point, the porous silica solution loaded with doxorubicin was settled using a centrifuge, and the absorbance (λab=480 nm) of the supernatant was measured to determine an amount of released doxorubicin.
The solution was maintained in a dynamic condition of performing horizontal agitation at 200 rpm and 37° C.
[…] of porous silica particles loaded with sorafenib (0.1 Mg) were dispersed in 10 ml of 1×PBS. The solution was maintained under a dynamic condition of performing horizontal agitation at 200 rpm and 37° C. At each time point, the porous silica solution loaded with sorafenib was settled using a centrifuge, and the absorbance (λab=270 nm) of the supernatant was measured to determine an amount of released sorafenib.
0.1 mg of particles loaded with retinoic acid were placed in a PBS (pH 7.4) solution containing 5% ethanol and maintained at 37° C. while performing horizontal agitation.
5 mg of particles loaded with p53 peptide were placed in 5 ml of 1×PBS containing 10% FBS or 5 ml of 1×PBS, and maintained under a dynamic environment while rotating at 20 rpm and 37° C. At each time point, centrifugation was conducted at 8500 rpm and a fluorescence intensity of 5(6)-carboxyfluorescein (FAM), which is a fluorescent label bound to p53 peptide from the supernatant ([…]: 480 nm, Emission: 520 nm).
10 μl of porous silica particles loaded with Cy5-siRNA was resuspended in SBF (pH 7.4, 37° C.) (total volume: 0.5 ml) and placed in a 1.5 ml tube. Release of siRNA was performed while horizontally agitating at 60 rpm and 37° C. At each time point, the siRNA-loaded porous silica solution was settled using a centrifuge, and a fluorescence intensity of the supernatant was measured.
20 μg of porous silica particles loaded with siRNA (1 μg) of the above 1) was dispersed in SBF (pH 7.4) inside a dialysis membrane (total volume: 0.5 ml), and the dialysis membrane was placed in a 1.5 ml SBF (pH 7.4) tube, and static conditions at 37° C. were maintained. At each time point, the siRNA-loaded porous silica solution was settled using a centrifuge, and the absorbance (λab=480 nm) of the supernatant was measured to determine an amount of released siRNA.
20 μg of porous silica particles loaded with pDNA (1 μg) were dispersed in SBF (pH 7.4) inside a dialysis membrane (total volume 0.5 ml), and the dialysis membrane was placed in a 1.5 ml SBF (pH 7.4) tube while shaking at 60 rpm and 37° C. At each time point, the porous silica solution loaded with pDNA was settled using a centrifuge and the absorbance (λab=480 nm) of the supernatant was measured to determine an amount of released pDNA.
Porous silica particles loaded with linear DNA (3 μg of linear DNA, 100 μg of porous silica particles) were resuspended in PBS (pH 7.4, 37° C.), and a dialysis membrane having a pore diameter of 20 kDa (the same tube as the tube in FIG. 18). After placing the suspension in the membrane, a dialysis tube was soaked in 1.5 ml of PBS.

[3] = system: HepG2 cells; assay: Delivery through intravenous injection, HepG2 Xeno; format: in vivo, Balb/C nude mouse; settings: loaded on particles of Example 2-(3)-4)-(i), tail vein, 4 mg/kg
Protocol: Xeno was prepared in Balb/C nude mouse using HepG2 cells as a human liver cancer cell line. […] An injecting dose of doxorubicin was 4 mg/kg (mouse weight), and 80 μg of doxorubicin and 160 μg of particles were used based on an average body weight of 20 g of 5 to 8-week old Balb/C nude mouse.

[4] = static condition, dialysis membrane

- loading of doxorubicin on the particles (colour of solution after centrifugation) [1]: mostly loaded on the particles
- time to reach a release rate of 50% ([2]; dynamic condition, 20 rpm): about 1.5 hours
- time up to which continuously released ([2]; dynamic condition, 20 rpm): ≥ 12 h
- time to reach a release rate of 50% [2, 4]: about 6 days
- time up to which continuously released [2, 4]: ≥ 480 h
SMILES: COc1cccc2c1C(=O)c1c(O)c3c(c(O)c1C2=O)C[C@@](O)(C(=O)CO)C[C@@H]3O[C@H]1C[C@H](N)[C@H](O)[C@H](C)O1 [doxorubicin]
- tumor growth inhibition compared to injection of the material alone [3]: excellent

Reference: patent publication US20200163885A1, “COMPOSITION FOR DELIVERING PHYSIOLOGICALLY ACTIVE INGREDIENTS INTO BLOOD VESSEL” (LEMONEX INC., priority 2017, published 2020)
